Results reported in US10227370B2, “Heparan sulfate/heparin mimetics with anti-chemokine and anti-inflammatory activity” (California Institute of Technology, priority 2013, dated 2019).

What was measured:
Type in all cases: biochemical
citrated human plasma [1] = test: Prothrombin time (PT) analysis; settings: 150 μg/mL stock, 300 μL in 2.7 mL citrated human plasma; saline control 13.3 s
Description: Samples were prepared by mixing 300 μL of the heparin standard or glycopolymer (150 μg/mL) in 0.9% saline with 2.7 mL citrated human plasma. The tube was inverted 3 times to mix the sample thoroughly. Samples were analyzed by the UCLA Clinical & Translational Research Laboratory using a Sysmex® CA-1500 Coagulation Analyzer (Siemens AG, Erlangen, Germany). Clotting time in the absence of an anticoagulant was determined using 0.9% saline solution water (300 μL). Each clotting assay was performed in triplicate.

FIIa = biological target: T1, FIIa (Homo sapiens, UniProt P01008); test: Chromogenic assay of anti-FIIa activity in the presence of ATIII, Example 9; settings: FIG. 12, FIG. 13B
T1 construct: purchased
Description: All reagents were prepared according to the manufacturer's instructions and incubated at 37° C. for 15 min. Varying concentrations of heparin, low molecular weight heparin, or glycopolymers (0.0005-500 μg/mL; 40 μL) and ATIII (0.01 IU; 40 μL) were added to a microcentrifuge tube, mixed, and incubated at 37° C. for 2 min. To this, FIIa (1.2 nkat; 40 μL) was added and was incubated at 37° C. for exactly 2 min (stage 1), then FIIa chromogenic substrate (0.05 mmol; 40 μL) was added. Exactly 2 min later (stage 2), the reaction was stopped by introducing citric acid (240 μL; 20 g/L). Absorbance at 405 nm was measured. The sample blank was obtained by mixing the reagents in reverse order from that of the test, i.e. citric acid, […], ATIII, and heparinized sample. The sample blank value was deducted from the absorbance measured for the corresponding assay.

FXa = test: Chromogenic assay of anti-FXa activity in the presence of ATIII, Example 9
Description: All reagents were prepared according to the manufacturer's instructions and incubated at 37° C. for 15 min. Varying concentrations of heparin, low molecular weight heparin, Arixtra® or glycopolymers (0.0005-500 μg/mL; 40 μL) and ATIII (0.04 IU; 40 μL) were added to a microcentrifuge tube, mixed, and incubated at 37° C. for 2 min. To this, FXa (0.32 μg; 40 μL) was added and was incubated at 37° C. for exactly 2 min (stage 1), then FXa chromogenic substrate (48 μmol; 40 μL) was added. Exactly 2 min later (stage 2), the reaction was stopped by introducing citric acid (240 μL; 20 g/L solution). Absorbance at 405 nm was measured on a Uvikon XL spectrophotometer. The sample blank was obtained by mixing the reagents in reverse order from that of the test, i.e. citric acid, FXa substrate, FXa, ATIII, and heparinized sample. The sample blank value was deducted from the absorbance measured for the corresponding assay.

citrated human plasma [2] = test: Activated partial thromboplastin time (APTT) analysis
Description: Plasma/anticoagulant samples were prepared by mixing 300 μL of the heparin standard or glycopolymer (150 μg/mL) in 0.9% saline and 2.7 mL of citrated human plasma. The tube was inverted 3 times to mix the sample thoroughly. Samples were analyzed by the UCLA Clinical & Translational Research Laboratory using a Sysmex® CA-1500 Coagulation Analyzer (Siemens AG, Erlangen, Germany). Clotting time in the absence of an anticoagulant was determined using 0.9% saline solution water (300 μl). Each clotting assay was performed in triplicate.

anti-FIIa activity (FIIa): no appreciable activity | IC50 (FXa): 11 ± 0.1 nM
Compound: CO[C@H]1O[C@H](COS(=O)(=O)O)[C@@H](O[C@@H]2O[C@@H](C(=O)O)[C@@H](O[C@H]3O[C@H](COS(=O)(=O)O)[C@@H](O[C@@H]4O[C@H](C(=O)O)[C@@H](O[C@H]5O[C@H](COS(=O)(=O)O)[C@@H](O)[C@H](O)[C@H]5NS(=O)(=O)O)[C@H](O)[C@H]4O)[C@H](OS(=O)(=O)O)[C@H]3NS(=O)(=O)O)[C@H](O)[C@H]2OS(=O)(=O)O)[C@H](O)[C@H]1NS(=O)(=O)O [Arixtra]
PT (citrated human plasma [1]): 15.1 ± 0.3 s | APTT (citrated human plasma [2]; 150 μg/mL stock, 300 μL in 2.7 mL citrated human plasma, saline control 31.2 s): 78.3 ± 0.4 s | effect on APTT and PT for clotting compared to the saline control (citrated human plasma [2]; same concentration, citrated human plasma): increased only the APTT
